In publication PMC12299847, “Macroalgae-Inspired Brominated Chalcones as Cosmetic Ingredients with the Potential to Target Skin Inflammaging” (Marine Drugs, 2025):

Assays:
RAW 264.7 macrophages = experiment: Resazurin cell viability assay in RAW 264.7 macrophages; type: cell-based, murine; settings: RAW 264.7, 24 h, 2.5 to 125 μM
Method: (§1) To evaluate the effects of chalcones 1–7 on cell viability after 24 h, a resazurin assay was performed using two cell lines: human HaCaT keratinocytes (HaCaT, CLS 300493), representing the epidermal layer, and murine RAW 264.7 macrophages (RAW 264.7, ATCC TIB-71), which model immune cells involved in dermal inflammatory responses. For the keratinocyte cell line, all seven brominated and non-brominated chalcones were tested across a concentration range from 2.5 μM to 125 μM (Figure 2).
To evaluate the cytotoxic effects of brominated and non-brominated chalcones 1–7 on macrophages, different concentration ranges were applied based on the response profiles previously observed for keratinocytes (Figure 3). […] For this set of chalcones, a similar tendency was observed: a lower cytotoxic characteristic of chalcone 4, which contained bromine atoms in both aromatic rings, compared to chalcones 5 (brominated in only the aromatic A ring) and 6 (non-brominated).
(§2) Human keratinocytes (HaCaT, CLS 300493, Eppelheim, Germany) were cultured in DMEM supplemented with heat-inactivated FBS, and a penicillin and streptomycin antibiotic solution. The cell culture of keratinocytes was washed with 6 mL of phosphate buffer solution with 0.05% EDTA (Sigma-Aldrich, St. Louis, MO, USA) and detached using 3 mL of 0.05% trypsin + 0.02% EDTA in PBS solution when the cells reached 70–80% confluence in cell culture flasks. DMEM was also used to cultivate the mouse macrophage cell line (RAW 264.7, ATCC TIB-71, Manassas, VA, USA) together with 10% (v/v) non-inactivated FBS, 1.5 g/L sodium bicarbonate, and 100 U/mL penicillin and 100 μg/mL streptomycin stock (antibiotic solution). The macrophage culture was mechanically detached using a cell scraper, and the final amount of DMEM media with the cells was sub-cultured in a 1:10 ratio to the cellular suspension.
The resazurin reduction assay was employed to evaluate the metabolic activity of human epidermal keratinocyte (HaCaT) and murine macrophage (RAW264.7) cell lines, as outlined in a previous study. In brief, HaCaT cells (1.0 × 10^5 cells/mL) and RAW264.7 cells (5.0 × 10^4 cells/mL) were seeded in 96-well plates (200 μL/well) and incubated overnight at 37 °C to allow for cell attachment. Following this, the cells were treated with different concentrations of the test compounds and kept at 37 °C for 24 h. After 20 h, resazurin (500 μM in sterile phosphate buffer solution, pH 7.4) was added to each well to achieve a final concentration of 50 μM, followed by an additional incubation of 4 h. Absorbance was then measured at wavelengths of 570 and 620 nm using a SpectraMax Plus 384 absorbance microplate spectrophotometer (Molecular Devices, San Jose, CA, USA). Each experiment was conducted in triplicate, with a minimum of three independent assays. […]

[1] = NO scavenging potential (SNAP assay); type: biochemical; settings: SNAP 300 μM, 3 h; compounds 100 μM (methods) or 7.5 μM (Figure 5)
Method: The SNAP (S-nitroso-N-acetylpenicillamine) assay is a well-established method for assessing the NO scavenging capacity of compounds, offering valuable insights into their potential direct antioxidant and anti-inflammatory properties. In this study, chalcones 1–7 were tested for their ability to capture NO radicals induced by the presence of SNAP at a concentration of 300 μM (Figure 5). […] Instead, these compounds could potentially exert their effects via alternative mechanisms, such as the modulation of iNOS activity or by targeting upstream targets in the inflammatory cascade, such as by the suppression of NF-κB activation, and/or Nrf2 activation, which will deplete co-activators from the iNOS enzyme, thereby reducing iNOS transcription and, consequently, iNOS protein levels and NO production.
The ability to scavenge NO was assessed using S-nitroso-N-acetyl-D/L-penicillamine (SNAP) as a source of NO. The production of NO was quantified using the Griess reaction, following a previously described method. […] Absorbance at 550 nm was then measured using a Biotek Synergy HT plate reader (Biotek, CA, USA). The nitrite concentration in the supernatants was determined by comparing the absorbance of each sample to a sodium nitrite standard curve. […]

HaCaT keratinocytes = experiment: Resazurin cell viability assay in HaCaT keratinocytes; type: cell-based, human; settings: HaCaT, 24 h, significant effects only at 62.5 μM and 125 μM
Method: as §1, §2
The resazurin reduction assay was employed to evaluate the metabolic activity of human epidermal keratinocyte (HaCaT) and murine macrophage (RAW264.7) cell lines, as outlined in a previous study. In brief, HaCaT cells (1.0 × 10^5 cells/mL) and RAW264.7 cells (5.0 × 10^4 cells/mL) were seeded in 96-well plates (200 μL/well) and incubated overnight at 37 °C to allow for cell attachment. Following this, the cells were treated with different concentrations of the test compounds and kept at 37 °C for 24 h. After 20 h, resazurin (500 μM in sterile phosphate buffer solution, pH 7.4) was added to each well to achieve a final concentration of 50 μM, followed by an additional incubation of 4 h. Absorbance was then measured at wavelengths of 570 and 620 nm using a SpectraMax Plus 384 absorbance microplate spectrophotometer (Molecular Devices, San Jose, CA, USA). Each experiment was conducted in triplicate, with a minimum of three independent assays. The results were graphically presented as the percentage of cell viability versus chemical concentration, relative to the control.
Figure 2 Cytotoxicity of chalcones 1–7 using a resazurin reduction assay in HaCaT cells by comparison with the control. Bar graphs represent the mean ± SEM of at least three independent experiments performed in triplicate. Statistical analysis: one ANOVA with Dunnett’s multiple comparisons test, where p < 0.05 was considered significant when compared to the control condition. * p < 0.05, ** p < 0.01, and *** p < 0.0005.

COc1cc(Br)c(/C=C/C(=O)c2cc(OC)c(OC)cc2Br)cc1OC [Chalcone 1]
cytotoxicity towards macrophages (RAW 264.7 macrophages): no cytotoxicity | NO scavenging activity [1]: No direct NO scavenging action | maximal reduction in viability (HaCaT keratinocytes): ≤ 25%
